The subject of the assay is Human TLR7/8. The experiment in a line: Human PBMC cell-based assay, TLR7/8 stimulus (RNA-Ig), cytokine ELISA. Conditions: primary human PBMC assay, TLR7/8 potency; ligand not given; read-out: Human PBMCs IC50. As for the experimental part: Human PBMC Cell-Based Assay. Human peripheral blood mononuclear cells (PBMC) were isolated from freshly-drawn heparinized (10 USP units/ml, Hospira, Lakeforest, Ill.) healthy donor whole blood by density gradient (Histopaque® 1077, Sigma, Inc., St. Louis, Mo.). Briefly, 25 ml blood was diluted with 15 ml PBS (without Ca^2+, Mg^2+) in a 50 ml conical tube, and 12 ml Histopaque was underlaid using a spinal needle. Tubes were centrifuged for 45 minutes at 1200 rpm (350×g), and PBMC were collected from the buffy coat. Cells were then washed twice in PBS, and red blood cells were lysed by suspension in 5 ml ammonium chloride solution (1× Red Blood Cell Lysis Buffer, eBioscience) for 5 minutes at room temperature. After a final wash in PBS, PBMC were resuspended at a final concentration of 2×10^6/ml in RPMI-1640 media with L-glutamine (Invitrogen) and supplemented with 25 mM HEPES (Mediatech, Inc, Manassas Va.), 10% fetal bovine serum (HyClone, Logan, Utah), and Penicillin-Streptomycin-Glutamine (Mediatech) and plated at 100 ul/well (2×10^5 cells/well) in tissue culture treated 96-well plates (Falcon).
Antagonist compounds solubilized and serial diluted in 100% DMSO were added in triplicate to cells to yield a final concentration of 0.1% DMSO (v/v). Hydroxychloroquine (Acros Organics) solubilized and serial diluted in PBS was added in triplicate to cells. PBMC were incubated with antagonist compounds or HCQ for 30 minutes at 37° C., 5% CO2 before adding various TLR agonist reagents in 100 ul complete media per well as follows (final concentrations indicated): R848 (Resiquimod; GLSynthesis, Worcester, Mass.) at 1 uM for TLR7 and TLR8, LPS (Sigma) at 10 ng/ml for TLR4, and CpG-2216 (InvivoGen) at 5 ug/ml for TLR9. To prepare a TLR7/8 agonist that mimics RNA-containing auto-antibody immune complexes in lupus patients, a 26-mer RNA with a sequence derived from human U1 snRNA stem loop IV [(sequence: […]-[…] (SEQ ID NO: 2) with phosphorothioate backbone] was synthesized (Dharmacon, Inc., Lafayette, Colo.), which has been shown previously to be a potent TLR7 and TLR8 agonist. This RNA molecule was diluted to 2.5 μM in serum-free RPMI, and mouse anti-human single stranded DNA monoclonal antibody (MAB3034, Millipore, Inc., Billerica, Mass.), which also cross-reacts with RNA, was added at a 1:25 dilution or at 1 ug/ml. The resulting “RNA-Ig” stimulus was incubated at room temperature for 15-30 minutes before adding to cells. PBMC were incubated with the various TLR agonists for 20 hours at 37° C., 5% CO2. Cell culture supernatants were collected, and levels of various human cytokines were assessed as indicated by standard ELISA procedure according to the manufacturer's recommended protocol (BD Biosciences, Inc., San Diego, Calif.). In a subsequent assay (Table 6) the ability of ER-899742 to block stimulation of normal PBMC by various TLR7/8 ligands, but not DNA-mediated activation of TLR9, was examined. In this assay cells were plated at 1×10^5 cells/well in 100 ul in 96-well plates.
A general note: In an ELISA, binding on a coated surface is turned into a signal by an enzyme label.

SMILES strings stand for the structures.

As for `C[C@@H]1CN(c2ccc(C#N)c3ncccc23)C[C@H](COc2cccc(F)c2)O1` [ER-886606], the IC50 (in general, the concentration at which inhibition is half-maximal) stood at 0.015 µM.

As for `CCc1cnc(NC[C@H]2CN(c3ccc(C#N)c4ncccc34)C[C@@H](C)O2)nc1` [ER-888701], the IC50 amounted to 0.018 µM.

For `Cc1cc(CN2CCC(N(C)C)CC2)cc(-c2ccc(C#N)c3ncccc23)c1` [ER-888646], the IC50 is 0.003 µM.

Consider `Cc1nc2cc(NC[C@H]3CN(c4ccc(C#N)c5ncccc45)C[C@@H](C)O3)ccc2n1C` [ER-886608], for which the IC50 is 0.001 µM.

As to `CC1CN(c2ccc(C#N)c3ncccc23)CC(CN2CCCCC2C)O1` (stereo not shown) [ER-886957], the IC50 was 0.017 µM.

For the compound `CC1CN(c2ccc(C#N)c3ncccc23)CC(C(=O)NCC(F)(F)F)O1` (stereo not shown) [ER-898563], the IC50 was 0.122 µM.

As to `C[C@@H]1CN(c2ccc(C#N)c3ncccc23)C[C@H](CN2CC[C@H](N(C)C)C2)O1` [ER-894549], the IC50 came out at 0.014 µM.

In the case of `CC1CN(c2ccc(C#N)c3ncccc23)CC(C(=O)NC2CNC2)O1` (stereo not shown) [ER-897964], the IC50 was determined as 0.02 µM.

On to `CC1CN(c2ccc(C#N)c3ncccc23)CC(C(=O)NCC2CNCCO2)O1` (stereo not shown) [ER-899278], for which the IC50 is 0.001 µM.

Consider `C[C@@H]1CN(c2ccc(C#N)c3ncccc23)C[C@H](CN2C[C@@H](C)O[C@@H](C)C2)O1` [ER-888204], for which the IC50 is 0.022 µM.

For `CC1CN(c2ccc(C#N)c3ncccc23)CC(C(=O)NCC2CN(C)CCO2)O1` (stereo not shown) [ER-897945], the IC50 was determined as 0.002 µM.

Consider `CC1CCCC(NCC2CN(c3ccc(C#N)c4ncccc34)CC(C)O2)C1` (stereo not shown) [ER-887146], for which the IC50 stood at 0.038 µM.

Take `CC1CNCC(CNC(=O)C2CN(c3ccc(C#N)c4ncccc34)CC(C)O2)O1` (stereo not shown) [ER-899366]: the IC50 was 0.001 µM.

On to `CC1CN(c2ccc(C#N)c3ncccc23)CC(CN2CCC(NC(=O)c3cccnc3)CC2)O1` (stereo not shown) [ER-889728], for which the IC50 is 0.021 µM.

Consider `N#Cc1ccc(N2CCOC(CNc3ccccn3)C2)c2cccnc12` (stereo not shown) [ER-887612], for which the IC50 worked out at 0.053 µM.

Regarding `CC1CN(c2ccc(C#N)c3ncccc23)CC(CN2CCC(NC(=O)C(C)(C)C)CC2)O1` (stereo not shown) [ER-889746], the IC50 stood at 0.073 µM.

With `CC(CO)NC(=O)C1CN(c2ccc(C#N)c3ncccc23)CC(C)O1` (stereo not shown) [ER-897447], the IC50 came to 0.1 µM.

Take `CC1CN(c2ccc(C#N)c3ncccc23)CC(C(C)O)O1` (stereo not shown) [ER-895310]: the 50% inhibitory concentration (IC50) was determined as 0.034 µM.

Turning to `CC1CN(c2ccc(C#N)c3ncccc23)CC(COc2ccccn2)O1` (stereo not shown) [ER-895324], the IC50 was 0.001 µM.

Regarding `C[C@@H]1CN(c2ccc(C#N)c3ncccc23)C[C@H](CN2CC[C@@H](O)C2)O1` [ER-886867], the IC50 is 0.034 µM.

As for `Cc1cc(NC[C@H]2CN(c3ccc(C#N)c4ncccc34)C[C@@H](C)O2)n(C)n1` [ER-888977], the IC50 amounted to 0.217 µM.

Take `CC1CN(c2ccc(C#N)c3ncccc23)CC(C(=O)NCC2CCCCN2C)O1` (stereo not shown) [ER-899293]: the IC50 was found to be 0.013 µM.

With `CCN1CCC(NC(=O)[C@H]2CN(c3ccc(C#N)c4ncccc34)C[C@@H](C)O2)CC1` [ER-899626], the IC50 was 0.001 µM.

As for `Cc1cc(CN2CCC(O)CC2)cc(-c2ccc(C#N)c3ncccc23)c1` [ER-888645], the IC50 was determined as 0.047 µM.

On to `CC1CN(c2ccc(C#N)c3ncccc23)CC(C(=O)NCC2CCCCN2)O1` (stereo not shown) [ER-899415], for which the IC50 came out at 0.013 µM.

In the case of `Cc1nn(C)cc1S(=O)(=O)NC1CN(C[C@H]2CN(c3ccc(C#N)c4ncccc34)C[C@@H](C)O2)C1` [ER-894159], the IC50 is 0.042 µM.

For the compound `CC1CN(c2ccc(C#N)c3ncccc23)CC(C(=O)NC(CO)C(C)(C)C)O1` (stereo not shown) [ER-897940], the IC50 came to 0.021 µM.

On to `C[C@@H]1CN(c2ccc(C#N)c3ncccc23)C[C@H](CN2CCN(C(N)=O)CC2)O1` [ER-888330], for which the IC50 amounted to 0.154 µM.

For `CCCCCC(=O)NC1CCN(CC2CN(c3ccc(C#N)c4ncccc34)CC(C)O2)CC1` (stereo not shown) [ER-889744], the IC50 turned out to be 0.008 µM.

With `CC1CCN(C[C@H]2CN(c3ccc(C#N)c4ncccc34)C[C@@H](C)O2)CC1` [ER-887141], the IC50 turned out to be 0.049 µM.

As to `CC(CO)NC(=O)C1CN(c2ccc(C#N)c3ncccc23)CC(C)O1` (stereo not shown) [ER-897446], the concentration for half-maximal inhibition (IC50) worked out at 0.053 µM.

In the case of `Cc1nsc(NC(=O)C2CN(c3ccc(C#N)c4ncccc34)CC(C)O2)n1` (stereo not shown) [ER-898923], the IC50 turned out to be 0.631 µM.

Consider `CC1CN(c2ccc(C#N)c3ncccc23)CC(CN2CCNCC2C)O1` (stereo not shown) [ER-890344], for which the IC50 stood at 0.002 µM.

On to `CC(=O)N[C@H]1CCN(C[C@H]2CN(c3ccc(C#N)c4ncccc34)C[C@@H](C)O2)C1` [ER-894546], for which the IC50 came out at 0.069 µM.

Take `CCOCC1CN(c2ccc(C#N)c3ncccc23)CC(C)O1` (stereo not shown) [ER-885807]: the IC50 was 0.331 µM.

Consider `C[C@@H]1CN(c2ccc(C#N)c3ncccc23)C[C@H](CNc2cc(-c3ccccc3)ccn2)O1` [ER-887252], for which the IC50 came out at 0.002 µM.

Regarding `C[C@@H]1CN(c2ccc(C#N)c3ncccc23)C[C@H](CN2CCCCC2)O1` [ER-888202], the IC50 came out at 0.008 µM.

Turning to `C[C@@H]1CN(c2ccc(C#N)c3ncccc23)C[C@H](C(=O)N[C@H]2CN(C)C[C@H]2F)O1` [ER-899332], the IC50 is 0.014 µM.

Turning to `CC1CN(c2ccc(C#N)c3ncccc23)CC(C(=O)N2CCC(N3CCCCC3)CC2)O1` (stereo not shown) [ER-895477], the IC50 is 0.013 µM.

For `CC1CN(c2ccc(C#N)c3ncccc23)CC(C(N)=O)O1` (stereo not shown) [ER-895472], the IC50 is 0.161 µM.

Consider `C[C@@H]1CN(c2ccc(C#N)c3ncccc23)C[C@H](C(=O)Nc2n[nH]cc2C#N)O1` [ER-899295], for which the IC50 was 0.032 µM.

For the compound `C[C@H]1CN(c2ccc(C#N)c3ncccc23)C[C@@H](CF)O1` [ER-886133], the IC50 is 0.127 µM.

Turning to `CC1CN(c2ccc(C#N)c3ncccc23)CC(C(C)O)O1` (stereo not shown) [ER-895200], the IC50 was determined as 0.026 µM.

As for `C[C@@H]1CN(c2ccc(C#N)c3ncccc23)C[C@H](COc2ccc(F)c(F)c2)O1` [ER-886605], the IC50 turned out to be 0.021 µM.

Turning to `CC1CN(c2ccc(C#N)c3ncccc23)CC(CN2CCC(N3CCCC3)C2)O1` (stereo not shown) [ER-889571], the IC50 came to 1 µM.

Consider `COc1ccc(NC[C@H]2CN(c3ccc(C#N)c4ncccc34)C[C@@H](C)O2)nc1` [ER-886855], for which the IC50 was determined as 0.034 µM.

For the compound `CC(=O)N[C@@H]1CCN(C[C@H]2CN(c3ccc(C#N)c4ncccc34)C[C@@H](C)O2)C1` [ER-890252], the IC50 was 0.042 µM.

On to `C[C@@H]1CN(c2ccc(C#N)c3ncccc23)C[C@H](CN2CC(NS(=O)(=O)c3ccc(F)cc3)C2)O1` [ER-894155], for which the IC50 was 0.042 µM.

As for `CC(=O)NC[C@H]1CN(c2ccc(C#N)c3ncccc23)C[C@@H](C)O1` [ER-879689], the IC50 worked out at 1.24 µM.

For `CC1CN(c2ccc(C#N)c3ncccc23)CC(COc2cnccn2)O1` (stereo not shown) [ER-894552], the IC50 is 0.017 µM.

Regarding `CCC(O)CNC(=O)C1CN(c2ccc(C#N)c3ncccc23)CC(C)O1` (stereo not shown) [ER-897922], the IC50 came out at 0.064 µM.

For the compound `C[C@@H]1CN(c2ccc(C#N)c3ncccc23)C[C@H](CN2CCOCC2)O1` [ER-888203], the IC50 was 0.105 µM.

`Cc1cc(C=O)cc(-c2ccc(C#N)c3ncccc23)c1` [ER-888200]: the IC50 is 0.016 µM.

On to `CC1CCC(NCC2CN(c3ccc(C#N)c4ncccc34)CC(C)O2)CC1` (mixture of isomers) [ER-887442], for which the IC50 was 0.047 µM.

For the compound `CC1CN(c2ccc(C#N)c3ncccc23)CC(CNc2ncccn2)O1` (stereo not shown) [ER-886787], the IC50 came to 0.076 µM.

As to `N#Cc1ccc(N2CCOC(CCl)C2)c2cccnc12` (stereo not shown) [ER-879570], the IC50 came out at 0.113 µM.

Regarding `CC(=O)N1CCN(C2CN(CC3CN(c4ccc(C#N)c5ncccc45)CC(C)O3)C2)CC1` (stereo not shown) [ER-890120], the IC50 amounted to 0.005 µM.

For `CC1CN(c2ccc(C#N)c3ncccc23)CC(C(=O)NCC2CCCN2)O1` (stereo not shown) [ER-899414], the IC50 came out at 0.025 µM.

With `CC1CN(c2ccc(C#N)c3ncccc23)CC(CN2CCCC2CO)O1` (stereo not shown) [ER-886866], the IC50 was found to be 0.05 µM.

On to `CC1CN(c2ccc(C#N)c3ncccc23)CC(CN2CCC(C3CCCCC3)CC2)O1` (stereo not shown) [ER-888479], for which the IC50 came out at 0.091 µM.

On to `Cc1ccnc(NCC2CN(c3ccc(C#N)c4ncccc34)CC(C)O2)c1` (stereo not shown) [ER-886853], for which the IC50 is 0.004 µM.

These data come from patent USRE47193E1, “Selectively substituted quinoline compounds” (EISAI R&D MANAGEMENT CO., LTD., priority 2013, dated 2019).
